# According to patent publication US7342029B2, “Substituted indoles” (Sanofi-Aventis Deutschland GmbH, priority 1999, dated 2008):
# Experiments:
# [1] = target: T1, cAMP-dependent protein kinase (PKA) (Homo sapiens, UniProt P17612); experiment: PKA kinase inhibition (Upstate test kit); assay type: biochemical; conditions: substance concentration 100 μM; ATP 50 μM
# T1 construct: purchased Upstate Biotechnologie
# Protocol: (§1) cAMP-dependent protein kinase (PKA), protein kinase C (PKC) and casein kinase II (CK II) were determined using the corresponding test kits of Upstate Biotechnologie according to the instructions of the manufacturer at an ATP concentration of 50 μM. However, instead of phosphocellulose filters, multi-screen plates (Millipore; Phosphocellulose MS-PH, cat. MAPHNOB10) with the corresponding aspiration system were used. The plates were then measured in a Wallac MicroBeta scintillation counter. In each case, 100 μM of test substance were used. Each substance was tested in duplicate. The mean of the blank (without enzyme) was subtracted from the means (enzyme with and without substances), and the inhibition in % was calculated. IC50 calculations were carried out using the software package GraFit 3.0.
# IκB kinase = target: T2, IκB kinase (Homo sapiens, UniProt O14920+O15111); experiment: IκB kinase ELISA; assay type: biochemical; conditions: kinase complex from HeLa S3 cell extract S100, activated with MEKK1Δ
# T2 construct: endogenous in cells; host or cells: HeLa S3 cell extract S100 (ammonium sulfate cut, Superose-6 fractions at 670 kDa)
# Protocol: The activity of the IκB kinase was determined using an ELISA comprising a biotinilated substrate peptide containing the amino acid sequence in the protein IκB of serines 32 to 36 and a specific poly- or monoclonal antibody (for example from New England Biolabs, Beverly, Mass., USA, cat.: 9240), which binds only to the phosphorylated form of the peptide IκB. This complex was immobilized on an antibody-binding plate (coated with protein A) and detected using a conjugate of a biotin-binding protein and HRP (for example streptavidine HRP). The activity could be quantified using a standard curve with substrate phosphopeptide.
# To obtain the kinase complex, 10 ml of HeLa S3 cell extract S100 were diluted with 40 ml 50 mM HEPES, pH 7.5, adjusted to 40% ammonium sulfate and incubated on ice for 30 minutes. The precipitated pellet was dissolved in 5 ml SEC buffer (50 mM HEPES, pH 7.5, 1 mM DTT, 0.5 mM EDTA, 10 mM 2-glycerophosphate), centrifuged at 20,000×g for 15 minutes and filtered through a 0.22 μm filter. The sample was applied to a 320 ml Superose-6 FPLC column (Amersham Pharmacia Biotech AB, Uppsala, Sweden) which had been equilibrated with SEC buffer and was operated at a flow rate of 2 ml/min at 4° C. The fractions which corresponded to the elution time of the 670 kDa molecular weight standard were combined for activation. Activation was achieved by a 45-minute-incubation with 100 nM MEKK1Δ, 250 μM MgATP, 10 mM MgCl2, 5 mM dithiothreitol (DTT), 10 mM 2-glycerophosphate, 2.5 μM microcystin LR at 37° C. The activated enzyme was stored at −80° C.
# The test substances, dissolved in DMSO (2 μl), were preincubated at 25° C. with 43 μl of activated enzyme (diluted 1:25 in reaction buffer 50 mM HEPES, pH 7.5, 10 mM MgCl2, 5 mM DTT, 10 mM β-glycerophosphate, 2.5 μM microcystin LR) for 30 minutes. 5 μl of substrate peptide (biotin-(CH2)6-DRHDSGLDSMKD-CONH2) (200 μM) were added, the mixture was incubated for one hour and the reaction was quenched using 150 μl of 50 mM HEPES, pH 7.5, 0.1% BSA, 50 mM EDTA, antibody [1:200]. 100 μl of the quenched reaction mixture or a standard phosphopeptide dilution series (biotin-(CH2)6-DRHDS[PO3]GLDSMKD-CONH2) were then transferred to a protein A plate (Pierce Chemical Co., Rockford, Ill., USA) and incubated with shaking for 2 hours.
# After 3 washing steps with PBS, 100 μl of 0.5 μg/ml of streptavidin HRP (horseradish peroxidase) (diluted in 50mM HEPES/0.1% BSA) were added for 30 minutes. After 5 washing steps with PBS, 100 μl of TMB substrate (Kirkegaard & Perry Laboratories, Gaithersburg, Md., USA) were added and the development of color was stopped by addition of 100 μl of 0.18 M sulfuric acid. Absorption was measured at 450 nm. The standard curve was generated by […] according to a 4-parameter dose-activity relation. Using this standard curve, the enzyme activity or their inhibition by test substances was quantified.
# Each substance was tested in duplicate. The mean of the blank (without enzyme) was subtracted from the means (enzyme with and without substances), and the inhibition in % was calculated. IC50 calculations were carried out using the software package GraFit 3.0.
# protein kinase C (PKC) = experiment: PKC kinase inhibition (Upstate test kit); assay type: biochemical; conditions: substance concentration 100 μM; ATP 50 μM
# Protocol: as §1
# casein kinase II (CK II) = target: T3, casein kinase II (CK II) (Homo sapiens, UniProt P68400); experiment: CK II kinase inhibition (Upstate test kit); assay type: biochemical; conditions: substance concentration 100 μM; ATP 50 μM
# T3 construct: purchased Upstate Biotechnologie
# Protocol: as §1
# T3 sequence (P68400 whole entry): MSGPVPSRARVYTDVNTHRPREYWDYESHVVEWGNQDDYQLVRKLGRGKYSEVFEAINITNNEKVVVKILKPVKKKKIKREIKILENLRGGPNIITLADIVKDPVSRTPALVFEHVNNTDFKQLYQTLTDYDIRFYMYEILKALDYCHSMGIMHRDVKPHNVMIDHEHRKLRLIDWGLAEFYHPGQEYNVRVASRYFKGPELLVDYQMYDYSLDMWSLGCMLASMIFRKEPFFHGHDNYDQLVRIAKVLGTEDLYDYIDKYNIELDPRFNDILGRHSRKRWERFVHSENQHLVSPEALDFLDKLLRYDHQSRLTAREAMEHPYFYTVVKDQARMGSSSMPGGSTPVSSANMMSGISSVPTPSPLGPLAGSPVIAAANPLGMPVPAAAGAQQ
# T2 sequence (O14920 whole entry): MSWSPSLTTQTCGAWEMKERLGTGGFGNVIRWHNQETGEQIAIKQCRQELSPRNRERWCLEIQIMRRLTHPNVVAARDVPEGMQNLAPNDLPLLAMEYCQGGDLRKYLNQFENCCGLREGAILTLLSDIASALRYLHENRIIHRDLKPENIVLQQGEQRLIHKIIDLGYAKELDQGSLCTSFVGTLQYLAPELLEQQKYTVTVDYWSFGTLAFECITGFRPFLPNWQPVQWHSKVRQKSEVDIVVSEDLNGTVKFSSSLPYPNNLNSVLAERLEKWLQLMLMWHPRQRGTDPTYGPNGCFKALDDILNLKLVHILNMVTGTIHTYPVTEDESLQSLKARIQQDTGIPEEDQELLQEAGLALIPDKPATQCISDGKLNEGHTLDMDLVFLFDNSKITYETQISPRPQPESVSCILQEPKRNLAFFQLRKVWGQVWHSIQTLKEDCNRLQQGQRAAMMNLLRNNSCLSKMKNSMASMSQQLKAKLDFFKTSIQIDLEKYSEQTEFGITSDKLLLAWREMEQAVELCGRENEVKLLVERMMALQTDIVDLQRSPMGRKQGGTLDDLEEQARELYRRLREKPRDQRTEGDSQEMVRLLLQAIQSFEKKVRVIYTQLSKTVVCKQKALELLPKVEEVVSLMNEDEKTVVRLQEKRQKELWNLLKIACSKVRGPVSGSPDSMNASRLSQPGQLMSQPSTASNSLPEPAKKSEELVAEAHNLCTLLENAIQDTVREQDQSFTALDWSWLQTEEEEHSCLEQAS
# T2 sequence (O15111 whole entry): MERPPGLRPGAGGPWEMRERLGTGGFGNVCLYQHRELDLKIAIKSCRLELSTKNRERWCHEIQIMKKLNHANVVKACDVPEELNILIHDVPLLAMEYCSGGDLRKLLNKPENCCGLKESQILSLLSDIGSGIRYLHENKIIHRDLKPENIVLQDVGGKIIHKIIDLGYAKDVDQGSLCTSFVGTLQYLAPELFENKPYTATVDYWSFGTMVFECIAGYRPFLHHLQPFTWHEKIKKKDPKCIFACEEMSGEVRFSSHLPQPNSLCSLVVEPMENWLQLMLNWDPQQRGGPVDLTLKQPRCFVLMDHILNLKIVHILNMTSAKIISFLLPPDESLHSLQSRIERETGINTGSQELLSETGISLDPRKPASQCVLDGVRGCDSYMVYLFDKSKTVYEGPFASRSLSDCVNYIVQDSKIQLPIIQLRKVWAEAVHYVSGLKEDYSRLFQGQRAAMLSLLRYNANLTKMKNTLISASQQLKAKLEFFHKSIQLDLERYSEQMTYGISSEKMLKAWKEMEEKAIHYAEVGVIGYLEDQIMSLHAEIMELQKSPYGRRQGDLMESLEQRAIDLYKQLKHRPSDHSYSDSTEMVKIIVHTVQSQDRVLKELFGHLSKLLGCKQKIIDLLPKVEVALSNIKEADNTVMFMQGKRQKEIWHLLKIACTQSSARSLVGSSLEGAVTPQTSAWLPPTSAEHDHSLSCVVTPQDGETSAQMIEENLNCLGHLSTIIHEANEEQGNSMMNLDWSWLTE
# T2 sequence (Q9Y6K9 whole entry partner): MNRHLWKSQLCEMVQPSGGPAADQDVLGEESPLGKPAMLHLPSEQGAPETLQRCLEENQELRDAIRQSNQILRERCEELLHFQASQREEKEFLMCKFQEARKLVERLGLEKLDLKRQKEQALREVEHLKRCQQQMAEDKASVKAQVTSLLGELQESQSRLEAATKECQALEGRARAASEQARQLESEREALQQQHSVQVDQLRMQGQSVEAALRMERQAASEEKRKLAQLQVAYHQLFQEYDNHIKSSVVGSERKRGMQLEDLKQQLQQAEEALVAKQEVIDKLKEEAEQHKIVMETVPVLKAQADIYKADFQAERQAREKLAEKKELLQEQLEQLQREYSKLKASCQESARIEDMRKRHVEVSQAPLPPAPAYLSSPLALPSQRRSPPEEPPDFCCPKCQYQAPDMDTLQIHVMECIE
Compound,inhibition at 100 µM [1] [%],IC50 (IκB kinase) [µM],PKC % inhibition (protein kinase C (PKC)) [%],inhibition at 100 µM (casein kinase II (CK II)) [%],melting point [°C]
"NC(=O)[C@H](CCc1ccccc1)NC(=O)c1ccc2[nH]c(-c3ccccc3)c(-c3ccccc3)c2c1 [Example 1, N-(1-Carbamoyl-3-phenylpropyl)-2,3-diphenyl-1H-indole-5-carboxamide]",–,32,–,–,120 to 125
Cc1c(-c2ccncc2)[nH]c2ccc(C(=O)N[C@@H](CSc3ccccc3)C(=O)O)cc12 [Example 5],55,1.8,8,27,–
Cc1c(-c2ccncc2)[nH]c2ccc(C(=O)N[C@@H](CSc3ccccc3)C(N)=O)cc12 [Example 6],60,4.9,58,39,–
"Cc1c(-c2ccncc2)[nH]c2ccc(C(=O)N[C@@H](CCn3cccc3)C(N)=O)cc12 [Example 7, N-(1-Carbamoyl-3-pyrrol-1-ylpropyl)-3-methyl-2-pyridin-4-yl-1H-indole-5-carboxamide]",–,3,–,18,–
CCN(C[C@H](NC(=O)c1ccc2[nH]c(-c3ccncc3)cc2c1)C(N)=O)c1ccccc1 [Example 9],0,1,23,0,–

# These reach a lower IC50 (IκB kinase). Values come first.
inhibition at 100 µM [1] [%],IC50 (IκB kinase) [µM],PKC % inhibition (protein kinase C (PKC)) [%],inhibition at 100 µM (casein kinase II (CK II)) [%],melting point [°C],Compound
24,0.61,15,35,–,NC(=O)[C@H](CCc1ccccc1)NC(=O)c1ccc2[nH]c(-c3ccncc3)cc2c1 [Example 2]
35,0.55,39,37,–,"NC(=O)[C@H](CSc1ccccc1)NC(=O)c1ccc2[nH]c(-c3ccncc3)cc2c1 (stereo in doubt) [Example 3, N-(1-carbamoyl-2-phenylsulfanylethyl)-2-pyridin-4-yl-1H-indole-5-carboxamide]"
42,0.5,33,47,–,O=C(N[C@@H](CSc1ccccc1)C(=O)O)c1ccc2[nH]c(-c3ccncc3)cc2c1 [Example 4]
